Measurements published in US11453703B2, “Heterotandem bicyclic peptide complexes” (BicycleTX Limited, priority 2018, dated 2022).
pEC50: −log10 of the molar value. Read-outs that look alike come from different tables or passages of the source.

Target: CD137 (Homo sapiens, UniProt Q07011)
Assay: CD137 reporter assay, co-culture with Nectin-4 tumour cells;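 further: jurkat reporter cells co-cultured with tumour cells and test article for 6 h, luminescence signal relative to Jurkat plus tumour cells lacking test article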
Type: cell-based
Parameters: host or cells: Jurkat reporter cells
Settings: for fold induction: read-out: Fold Induction over Background
[1] = tumour target Nectin4, co-culture with H1376, 6 h

CD137, sequence (Q07011 24-255): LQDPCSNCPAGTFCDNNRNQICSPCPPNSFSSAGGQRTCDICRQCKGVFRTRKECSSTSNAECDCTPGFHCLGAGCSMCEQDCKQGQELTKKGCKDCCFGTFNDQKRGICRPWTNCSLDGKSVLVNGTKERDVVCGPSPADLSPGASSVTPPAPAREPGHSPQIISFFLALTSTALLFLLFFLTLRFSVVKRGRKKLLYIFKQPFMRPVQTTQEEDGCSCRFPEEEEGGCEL

Row | Compound | pEC50 | Fold Induction over Background [1] [fold] | fold induction [1] | other results
1 | CCCC[C@@H]1NC(=O)[C@H](Cc2ccc(O)cc2)NC(=O)[C@@H]2CCCN2C(=O)[C@H](CC(=O)O)NC(=O)[C@H](C)NC(=O)[C@H](Cc2ccccc2)NC(=O)[C@@H]2CSCCC(=O)N3CN(CN(C3)C(=O)CCSC[C@@H](C(=O)N[C@@H](C)C(N)=O)NC1=O)C(=O)CCSC[C@H](NC(C)=O)C(=O)N[C@@H](CC(C)(C)C)C(=O)N1CCC[C@H]1C(=O)N[C@@H](CCC(=O)O)C(=O)N[C@H](CCCCNC(=O)CCc1cn(CC(=O)N[C@H]3CSCCC(=O)N4CN5CN(C4)C(=O)CCSC[C@H](NC(=O)[C@@H](CC(=O)O)NC(=O)[C@H](Cc4cccc6ccccc46)NC(=O)[C@@H]4CCCN4C3=O)C(=O)N[C@@H](CCSC)C(=O)N[C@@H](CCCCNC(=N)N)C(=O)N[C@@H](CC(=O)O)C(=O)N[C@@H](Cc3c[nH]c4ccccc34)C(=O)N[C@@H](CO)C(=O)N[C@@H]([C@@H](C)O)C(=O)N3CCC[C@H]3C(=O)N3C[C@H](O)C[C@H]3C(=O)N[C@@H](Cc3c[nH]c4ccccc34)C(=O)N[C@H](C(N)=O)CSCCC5=O)nn1)C(=O)N1CCC[C@H]1C(=O)N[C@@H](Cc1ccc(O)cc1)C(=O)N2 [BCY11374] | 10.04 | 72 | – | –
2 | CCCC[C@@H]1NC(=O)[C@H](Cc2ccc(O)cc2)NC(=O)[C@@H]2CCCN2C(=O)[C@H](CC(=O)O)NC(=O)[C@H](C)NC(=O)[C@H](Cc2ccccc2)NC(=O)[C@@H]2CSCCC(=O)N3CN(CN(C3)C(=O)CCSC[C@@H](C(=O)N[C@@H](CNC(=O)Cn3cc(CCC(=O)NCCC(=O)N(C)CC(=O)N(C)CC(=O)N(C)CC(=O)N(C)CC(=O)N(C)CC(=O)N(C)CC(=O)N(C)CC(=O)N(C)CC(=O)N(C)CC(=O)N(C)CC(=O)N[C@H]4CSCCC(=O)N5CN6CN(C5)C(=O)CCSC[C@H](NC(=O)[C@@H](CC(=O)O)NC(=O)[C@H](Cc5cccc7ccccc57)NC(=O)[C@@H]5CCCN5C4=O)C(=O)N[C@@H](CCSC)C(=O)N[C@@H](CCCCNC(=N)N)C(=O)N[C@@H](CC(=O)O)C(=O)N[C@@H](Cc4c[nH]c5ccccc45)C(=O)N[C@@H](CO)C(=O)N[C@@H]([C@@H](C)O)C(=O)N4CCC[C@H]4C(=O)N4C[C@H](O)C[C@H]4C(=O)N[C@@H](Cc4c[nH]c5ccccc45)C(=O)N[C@H](C(N)=O)CSCCC6=O)nn3)C(N)=O)NC1=O)C(=O)CCSC[C@H](NC(C)=O)C(=O)N[C@@H](CC(C)(C)C)C(=O)N1CCC[C@H]1C(=O)N[C@@H](CCC(=O)O)C(=O)N[C@H](C)C(=O)N1CCC[C@H]1C(=O)N[C@@H](Cc1ccc(O)cc1)C(=O)N2 [BCY10578] | – | 58 | – | –
3 | CCCC[C@@H]1NC(=O)[C@H](Cc2ccc(O)cc2)NC(=O)[C@@H]2CCCN2C(=O)[C@H](CC(=O)O)NC(=O)[C@H](C)NC(=O)[C@H](Cc2ccccc2)NC(=O)[C@@H]2CSCCC(=O)N3CN(CN(C3)C(=O)CCSC[C@@H](C(=O)N[C@@H](CNC(=O)CCc3cn(CCOCCOCCOCCOCCOCCOCCOCCOCCOCCOCCNC(=O)N[C@H]4CSCCC(=O)N5CN6CN(C5)C(=O)CCSC[C@H](NC(=O)[C@@H](CC(=O)O)NC(=O)[C@H](Cc5cccc7ccccc57)NC(=O)[C@@H]5CCCN5C4=O)C(=O)N[C@@H](CCSC)C(=O)N[C@@H](CCCCNC(=N)N)C(=O)N[C@@H](CC(=O)O)C(=O)N[C@@H](Cc4c[nH]c5ccccc45)C(=O)N[C@@H](CO)C(=O)N[C@@H]([C@@H](C)O)C(=O)N4CCC[C@H]4C(=O)N4C[C@H](O)C[C@H]4C(=O)N[C@@H](Cc4c[nH]c5ccccc45)C(=O)N[C@H](C(N)=O)CSCCC6=O)nn3)C(N)=O)NC1=O)C(=O)CCSC[C@H](NC(=O)[C@H](C)NC(C)=O)C(=O)N[C@@H]([C@@H](C)CC)C(=O)N[C@@H](CCC(=O)O)C(=O)N[C@@H](CCC(=O)O)C(=O)NCC(=O)N[C@@H](CCC(N)=O)C(=O)N[C@@H](Cc1ccc(O)cc1)C(=O)N2 [BCY9399] | – | – | 13 | –
4 | CCCC[C@@H]1NC(=O)[C@H](Cc2ccc(O)cc2)NC(=O)[C@@H]2CCCN2C(=O)[C@H](CC(=O)O)NC(=O)[C@H](C)NC(=O)[C@H](Cc2ccccc2)NC(=O)[C@@H]2CSCCC(=O)N3CN(CN(C3)C(=O)CCSC[C@@H](C(=O)N[C@@H](CNC(=O)CCc3cn(CCCNC(=O)CN(C)C(=O)CN(C)C(=O)CN(C)C(=O)CN(C)C(=O)CN(C)C(=O)CCOCCOCCOCCOCCOCCOCCOCCOCCOCCOCCOCCOCCOCCOCCOCCNC(=O)N[C@H]4CSCCC(=O)N5CN6CN(C5)C(=O)CCSC[C@H](NC(=O)[C@@H](CC(=O)O)NC(=O)[C@H](Cc5cccc7ccccc57)NC(=O)[C@@H]5CCCN5C4=O)C(=O)N[C@@H](CCSC)C(=O)N[C@@H](CCCCNC(=N)N)C(=O)N[C@@H](CC(=O)O)C(=O)N[C@@H](Cc4c[nH]c5ccccc45)C(=O)N[C@@H](CO)C(=O)N[C@@H]([C@@H](C)O)C(=O)N4CCC[C@H]4C(=O)N4C[C@H](O)C[C@H]4C(=O)N[C@@H](Cc4c[nH]c5ccccc45)C(=O)N[C@H](C(N)=O)CSCCC6=O)nn3)C(N)=O)NC1=O)C(=O)CCSC[C@H](NC(=O)[C@H](C)NC(C)=O)C(=O)N[C@@H]([C@@H](C)CC)C(=O)N[C@@H](CCC(=O)O)C(=O)N[C@@H](CCC(=O)O)C(=O)NCC(=O)N[C@@H](CCC(N)=O)C(=O)N[C@@H](Cc1ccc(O)cc1)C(=O)N2 [BCY9407] | 8.47 | 29 | – | –
5 | CCCC[C@@H]1NC(=O)[C@H](Cc2ccc(O)cc2)NC(=O)[C@@H]2CCCN2C(=O)[C@H](CC(=O)O)NC(=O)[C@H](C)NC(=O)[C@H](Cc2ccccc2)NC(=O)[C@@H]2CSCCC(=O)N3CN(CN(C3)C(=O)CCSC[C@@H](C(=O)N[C@@H](CNC(=O)CCc3cn(CCOCCOCCOCCOCCOCCOCCOCCOCCOCCOCCOCCOCCOCCOCCOCCOCCOCCOCCOCCOCCOCCOCCOCCNC(=O)N[C@H]4CSCCC(=O)N5CN6CN(C5)C(=O)CCSC[C@H](NC(=O)[C@@H](CC(=O)O)NC(=O)[C@H](Cc5cccc7ccccc57)NC(=O)[C@@H]5CCCN5C4=O)C(=O)N[C@@H](CCSC)C(=O)N[C@@H](CCCCNC(=N)N)C(=O)N[C@@H](CC(=O)O)C(=O)N[C@@H](Cc4c[nH]c5ccccc45)C(=O)N[C@@H](CO)C(=O)N[C@@H]([C@@H](C)O)C(=O)N4CCC[C@H]4C(=O)N4C[C@H](O)C[C@H]4C(=O)N[C@@H](Cc4c[nH]c5ccccc45)C(=O)N[C@H](C(N)=O)CSCCC6=O)nn3)C(N)=O)NC1=O)C(=O)CCSC[C@H](NC(=O)[C@H](C)NC(C)=O)C(=O)N[C@@H]([C@@H](C)CC)C(=O)N[C@@H](CCC(=O)O)C(=O)N[C@@H](CCC(=O)O)C(=O)NCC(=O)N[C@@H](CCC(N)=O)C(=O)N[C@@H](Cc1ccc(O)cc1)C(=O)N2 [BCY9400] | – | – | 13 | –
6 | CCCC[C@@H]1NC(=O)[C@H](Cc2ccc(O)cc2)NC(=O)[C@@H]2CCCN2C(=O)[C@H](CC(=O)O)NC(=O)[C@H](C)NC(=O)[C@H](Cc2ccccc2)NC(=O)[C@@H]2CSCCC(=O)N3CN(CN(C3)C(=O)CCSC[C@@H](C(=O)N[C@@H](C)C(N)=O)NC1=O)C(=O)CCSC[C@H](NC(C)=O)C(=O)N[C@@H](CC(C)(C)C)C(=O)N1CCC[C@H]1C(=O)N[C@@H](CCCCNC(=O)CCc1cn(CC(=O)N[C@H]3CSCCC(=O)N4CN5CN(C4)C(=O)CCSC[C@H](NC(=O)[C@@H](CC(=O)O)NC(=O)[C@H](Cc4cccc6ccccc46)NC(=O)[C@@H]4CCCN4C3=O)C(=O)N[C@@H](CCSC)C(=O)N[C@@H](CCCCNC(=N)N)C(=O)N[C@@H](CC(=O)O)C(=O)N[C@@H](Cc3c[nH]c4ccccc34)C(=O)N[C@@H](CO)C(=O)N[C@@H]([C@@H](C)O)C(=O)N3CCC[C@H]3C(=O)N3C[C@H](O)C[C@H]3C(=O)N[C@@H](Cc3c[nH]c4ccccc34)C(=O)N[C@H](C(N)=O)CSCCC5=O)nn1)C(=O)N[C@H](C)C(=O)N1CCC[C@H]1C(=O)N[C@@H](Cc1ccc(O)cc1)C(=O)N2 [BCY11373] | – | – | – | Fold Induction over Background: 74 fold; pEC50 (tumour target Nectin4, co-culture with H1376, 6 h, read-out: EC50): 9.80
